In publication PMC12825302, “Structural plasticity enables broad cAn binding and dual activation of CRISPR-associated ribonuclease Cdn1” (Nucleic Acids Research, 2026):

Assays:
Cdn1 [1] = molecular target: T1, Cdn1 (Psychrobacter lutiphocae, UniProt A0ACN4YG66); experiment: FAM-labeled ssRNA (RNA1) cleavage, urea-PAGE; type: biochemical
T1 construct: codon-optimized gene in pET-28a(+), E. coli BL21(DE3), Ni-NTA and SEC; homodimer (SEC-MALS); N-terminal CARF and C-terminal PD-(D/E)xK nuclease domain
T1 sequence (A0ACN4YG66 1-399): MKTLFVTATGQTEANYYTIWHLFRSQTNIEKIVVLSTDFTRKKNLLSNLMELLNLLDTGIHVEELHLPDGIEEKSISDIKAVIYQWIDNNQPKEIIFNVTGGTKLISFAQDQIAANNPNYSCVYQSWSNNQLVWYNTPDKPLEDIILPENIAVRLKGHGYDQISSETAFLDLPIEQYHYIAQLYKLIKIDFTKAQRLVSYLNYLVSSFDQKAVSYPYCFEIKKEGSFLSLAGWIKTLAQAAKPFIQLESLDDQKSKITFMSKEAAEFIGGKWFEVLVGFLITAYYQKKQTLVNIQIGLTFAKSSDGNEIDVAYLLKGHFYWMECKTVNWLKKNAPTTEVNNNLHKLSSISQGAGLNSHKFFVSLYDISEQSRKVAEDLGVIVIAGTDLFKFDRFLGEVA

Cdn1 [2] = molecular target: T1, Cdn1; experiment: ITC; type: binding
[3] = molecular target: Cdn1 (CRISPR-associated dual-cOAs-activated ribonuclease 1) (Psychrobacter lutiphocae); experiment: SEC; size-exclusion chromatography during purification (HiLoad 16/600 Superdex 200 prep grade); no cyclic oligoadenylate added
[4] = molecular target: Cdn1 (CRISPR-associated dual-cOAs-activated ribonuclease 1) (Psychrobacter lutiphocae); experiment: SEC-MALS; 10 mg/ml Cdn1 in 50 mM NaH2PO4/Na2HPO4, pH 7.4, 300 mM NaCl; TSKgel G3000SWXL, 0.5 ml/min, 8°C; no cyclic oligoadenylate added

| EC50 (Cdn1 [1]) | Kd (Cdn1 [2]) | stoichiometry N [3] | stoichiometry N [4] | Compound |
| --- | --- | --- | --- | --- |
| 0.67 ± 0.0988 µM | 0.74 ± 0.205 µM |  |  | Nc1ncnc2c1ncn2[C@@H]1O[C@@H]2COP(=O)(O)O[C@H]3[C@@H](O)[C@H](n4cnc5c(N)ncnc54)O[C@@H]3COP(=O)(O)O[C@H]3[C@@H](O)[C@H](n4cnc5c(N)ncnc54)O[C@@H]3COP(=O)(O)O[C@H]3[C@@H](O)[C@H](n4cnc5c(N)ncnc54)O[C@@H]3COP(=O)(O)O[C@H]3[C@@H](O)[C@H](n4cnc5c(N)ncnc54)O[C@@H]3COP(=O)(O)O[C@H]3[C@@H](O)[C@H](n4cnc5c(N)ncnc54)O[C@@H]3COP(=O)(O)O[C@H]2[C@H]1O [cA6] |
| 0.00217 ± 0.00068 µM | 0.0546 ± 0.0251 µM |  |  | Nc1ncnc2c1ncn2[C@@H]1O[C@@H]2COP(=O)(O)O[C@H]3[C@@H](O)[C@H](n4cnc5c(N)ncnc54)O[C@@H]3COP(=O)(O)O[C@H]3[C@@H](O)[C@H](n4cnc5c(N)ncnc54)O[C@@H]3COP(=O)(O)O[C@H]3[C@@H](O)[C@H](n4cnc5c(N)ncnc54)O[C@@H]3COP(=O)(O)O[C@H]2[C@H]1O [cA4] |
|  |  | 2 | 2 | Cdn1 (CRISPR-associated dual-cOAs-activated ribonuclease 1) (enzyme) |
|  | 0.023 ± 0.0087 µM |  |  | Nc1ncnc2c1ncn2[C@@H]1O[C@@H]2COP(=O)(O)O[C@H]3[C@@H](O)[C@H](n4cnc5c(N)ncnc54)O[C@@H]3COP(=O)(O)O[C@H]3[C@@H](O)[C@H](n4cnc5c(N)ncnc54)O[C@@H]3COP(=O)(O)O[C@H]2[C@H]1O [cA3] |
